System: ct-DNA
Assay: UV-Vis absorption titration with ct-DNA (Kb)
Format: binding, calf
Details: band at 320 nm, cacodylate/NaCl buffer pH 7.25, 1 h
Description: For the UV–Vis, fluorescence and circular dichroism assays the concentration of ct-DNA was determined on a Varian Cary 100 Scan spectrophotometer from the absorption at 260 nm and the corresponding molar absorptivity of 6600 M^−1 cm^−1 (nucleobase concentration). The stock solutions of the coordination compounds and the free ligands were prepared in cacodylate/NaCl buffer (1 mM cacodylic acid and 20 mM sodium chloride) at pH 7.25. The final samples contained a DMSO concentration of 0.2%.
Absorption titration experiments were carried out by adding increasing concentrations of ct-DNA (0–25 µM) to 10 µM of the compounds in a final volume of 2 mL. The samples were incubated for 1 h at 37 °C, and spectra were collected on a Varian Cary 100 Scan spectrophotometer. For these assays the charge-transfer band of the compounds was followed at 320 nm. The intrinsic binding constant (Kb) was determined from the titration data using Eq. 2:2 DNA/εα-εf=DNA/ε0-εf+1/Kbε0-εf where εa, ε0 and εf are respectively, the molar extinction coefficients of […].

Cc1ncc([N+](=O)[O-])n1CCCl.Cc1ncc([N+](=O)[O-])n1CCCl.[Br][Cu][Br] [[Cu(cenz)2Br2]]
Kb: 450000 M⁻¹

From article PMC11001709, “Anti-toxoplasma activity and DNA-binding of copper(II) and zinc(II) coordination compounds with 5-nitroimidazole-based ligands” (Journal of Biological Inorganic Chemistry, 2023)
